According to patent US6479435B1, “Diaryl ethers and processes for their preparation and herbicidal and desiccant compositions containing them” (ISK Americas Incorporated, priority 1997, dated 2002):

How the values were obtained:
Format in all cases: in vivo
[1] = system: common ragweed (Ambrosia artemisiifolia L., AMBEL); assay: Post-emerge greenhouse herbicide test, phytotoxicity rating; details: 14 days after application; for phytotoxicity rating AMBEL: scale 0-100
Summary of the method: (§1)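 Plants at the 2-3 leaf stage, sown 8-21 days earlier, were track-sprayed post-emergence with compound in acetone plus 0.25% v/v non-ionic surfactant at 63-1000 g ai/ha (187 l/ha). Damage was rated at 14 days on a 0-100 scale (0 none, 100 all plants dead), for both crop injury and weed control.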

[2] = system: ivyleaf morningglory (Ipomoea hederacea, IPOHE); assay: as above; details: 14 days after application; for phytotoxicity rating IPOHE: scale 0-100
Summary of the method: as §1

[3] = system: lambsquarters (Chenopodium album, CHEAL); assay: as above; details: 14 days after application; for phytotoxicity rating CHEAL: scale 0-100
Summary of the method: as §1

[4] = system: barnyardgrass (Echinochloa crusgalli, ECHCG); assay: as above; details: 14 days after application; for phytotoxicity rating ECHCG: scale 0-100
Summary of the method: as §1

[5] = system: large crabgrass (Digitaria sanguinalis, DIGSA); assay: as above; details: 14 days after application; for phytotoxicity rating DIGSA: scale 0-100
Summary of the method: as §1

[6] = system: redroot pigweed (Amaranthus retroflexus, AMARE); assay: as above; details: 14 days after application; for phytotoxicity rating AMARE: scale 0-100
Summary of the method: as §1

[7] = system: sicklepod (Cassia obtusifolia, CASOB); assay: as above; details: 14 days after application; for phytotoxicity rating CASOB: scale 0-100
Summary of the method: as §1

[8] = system: Johnsongrass (Sorghum halepense, SORHA); assay: as above; details: 14 days after application; for phytotoxicity rating SORHA: scale 0-100
Summary of the method: as §1

[9] = system: green foxtail (Setaria viridis, SETVI); assay: as above; details: 14 days after application; for phytotoxicity rating SETVI: scale 0-100
Summary of the method: as §1

[10] = system: velvetleaf (Abutilon theophrasti, ABUTH); assay: as above; details: 14 days after application; for phytotoxicity rating ABUTH: scale 0-100
Summary of the method: as §1

[11] = system: upland rice (Oryza sp., var.Tebonnet, RICE); assay: Post-emerge greenhouse test, crop damage rating; details: 14 days after application; for crop damage rating RICE: scale 0-100
Summary of the method: as §1

[12] = system: field corn (Zea mays L., var. Dekalb 535, CORN); assay: Post-emerge greenhouse test, crop damage rating; details: 14 days after application; for crop damage rating CORN: scale 0-100
Summary of the method: as §1

[13] = system: soybean (Glycine max L., var. Pella 86, SOY); assay: Pre-emerge greenhouse test, crop damage rating; design: key to SOY crop damage rating: 0 = no damage, 100 = complete death of all plants; details: 14 days after application, rating scale 0-100
Summary of the method: (§2)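 Seeds sown in sandy loam one day before track-sprayer application of acetone solutions at 125–1000 g ai/ha (187 l/ha), then surface-watered to incorporate and bottom-watered. Injury scored visually at 14 days on a 0–100 scale (0 no damage, 100 complete death).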

[14] = system: upland rice (Oryza sp., var.Tebonnet, RICE); assay: Pre-emerge greenhouse test, crop damage rating; details: 14 days after application, rating scale 0-100
Summary of the method: as §2

[15] = system: field corn (Zea mays L., var. Dekalb 535, CORN); assay: Pre-emerge greenhouse test, crop damage rating; details: 14 days after application, rating scale 0-100
Summary of the method: as §2

[16] = system: soybean (Glycine max L., var. Pella 86, SOY); assay: Post-emerge greenhouse test, crop damage rating; design: key to crop damage rating SOY: 0-100 scale: 0 = no damage, 100 = complete death of all plants; details: 14 days after application; for crop damage rating SOY: scale 0-100
Summary of the method: as §1

[17] = system: ivyleaf morningglory (Ipomoea hederacea, IPOHE); assay: Pre-emerge greenhouse herbicide test, phytotoxicity rating; details: 14 days after application, rating scale 0-100
Summary of the method: as §2

[18] = system: lambsquarters (Chenopodium album, CHEAL); assay: as above; details: 14 days after application, rating scale 0-100
Summary of the method: as §2

[19] = system: barnyardgrass (Echinochloa crusgalli, ECHCG); assay: as above; details: 14 days after application, rating scale 0-100
Summary of the method: as §2

[20] = system: common ragweed (Ambrosia artemisiifolia L., AMBEL); assay: as above; details: 14 days after application, rating scale 0-100
Summary of the method: as §2

[21] = system: large crabgrass (Digitaria sanguinalis, DIGSA); assay: as above; details: 14 days after application, rating scale 0-100
Summary of the method: as §2

[22] = system: redroot pigweed (Amaranthus retroflexus, AMARE); assay: as above; details: 14 days after application, rating scale 0-100
Summary of the method: as §2

[23] = system: sicklepod (Cassia obtusifolia, CASOB); assay: as above; details: 14 days after application, rating scale 0-100
Summary of the method: as §2

[24] = system: Johnsongrass (Sorghum halepense, SORHA); assay: as above; details: 14 days after application, rating scale 0-100
Summary of the method: as §2

[25] = system: green foxtail (Setaria viridis, SETVI); assay: as above; details: 14 days after application, rating scale 0-100
Summary of the method: as §2

[26] = system: velvetleaf (Abutilon theophrasti, ABUTH); assay: as above; details: 14 days after application, rating scale 0-100
Summary of the method: as §2

O=c1n(CCCF)nnn1-c1cc(Oc2ccc(C(F)(F)F)cn2)c(Cl)cc1Cl [Compound 6-9]
AMBEL phytotoxicity rating (0-100) ([1]; 63 g al/ha): 0
AMBEL phytotoxicity rating (0-100) ([1]; 250 g al/ha): 0
IPOHE phytotoxicity rating (0-100) ([2]; 63 g al/ha): 0
IPOHE phytotoxicity rating (0-100) ([2]; 250 g al/ha): 0
CHEAL phytotoxicity rating (0-100) ([3]; 63 g al/ha): 0
CHEAL phytotoxicity rating (0-100) ([3]; 250 g al/ha): 0
ECHCG phytotoxicity rating (0-100) ([4]; 63 g al/ha): 0
ECHCG phytotoxicity rating (0-100) ([4]; 250 g al/ha): 0
DIGSA phytotoxicity rating (0-100) ([5]; 63 g al/ha): 0
DIGSA phytotoxicity rating (0-100) ([5]; 250 g al/ha): 0
AMARE phytotoxicity rating (0-100) ([6]; 63 g al/ha): 0
AMARE phytotoxicity rating (0-100) ([6]; 250 g al/ha): 0
CASOB phytotoxicity rating (0-100) ([7]; 63 g al/ha): 0
CASOB phytotoxicity rating (0-100) ([7]; 250 g al/ha): 0
SORHA phytotoxicity rating (0-100) ([8]; 63 g al/ha): 0
SORHA phytotoxicity rating (0-100) ([8]; 250 g al/ha): 0
SETVI phytotoxicity rating (0-100) ([9]; 63 g al/ha): 0
SETVI phytotoxicity rating (0-100) ([9]; 250 g al/ha): 0
ABUTH phytotoxicity rating (0-100) ([10]; 63 g al/ha): 0
ABUTH phytotoxicity rating (0-100) ([10]; 250 g al/ha): 0
RICE crop damage rating (0-100) ([11]; 63 g al/ha): 0
RICE crop damage rating (0-100) ([11]; 250 g al/ha): 0
CORN crop damage rating (0-100) ([12]; 63 g al/ha): 0
CORN crop damage rating (0-100) ([12]; 250 g al/ha): 0
crop damage rating SOY ([13]; 125 g ai/ha): 0
crop damage rating SOY ([13]; 500 g ai/ha): 0
crop damage rating RICE ([14]; 125 g ai/ha): 0
crop damage rating RICE ([14]; 500 g ai/ha): 0
crop damage rating CORN ([15]; 125 g ai/ha): 0
crop damage rating CORN ([15]; 500 g ai/ha): 0
SOY crop damage rating (0-100) ([16]; 63 g al/ha): 0
SOY crop damage rating (0-100) ([16]; 250 g al/ha): 0
phytotoxicity rating IPOHE ([17]; 125 g ai/ha): 0
phytotoxicity rating IPOHE ([17]; 500 g ai/ha): 0
phytotoxicity rating CHEAL ([18]; 125 g ai/ha): 0
phytotoxicity rating CHEAL ([18]; 500 g ai/ha): 0
phytotoxicity rating ECHCG ([19]; 125 g ai/ha): 0
phytotoxicity rating ECHCG ([19]; 500 g ai/ha): 0
phytotoxicity rating AMBEL ([20]; 125 g ai/ha): 0
phytotoxicity rating AMBEL ([20]; 500 g ai/ha): 0
phytotoxicity rating DIGSA ([21]; 125 g ai/ha): 0
phytotoxicity rating DIGSA ([21]; 500 g ai/ha): 0
phytotoxicity rating AMARE ([22]; 125 g ai/ha): 0
phytotoxicity rating AMARE ([22]; 500 g ai/ha): 0
phytotoxicity rating CASOB ([23]; 125 g ai/ha): 0
phytotoxicity rating CASOB ([23]; 500 g ai/ha): 0
phytotoxicity rating SORHA ([24]; 125 g ai/ha): 0
phytotoxicity rating SORHA ([24]; 500 g ai/ha): 0
phytotoxicity rating SETVI ([25]; 125 g ai/ha): 0
phytotoxicity rating SETVI ([25]; 500 g ai/ha): 0
phytotoxicity rating ABUTH ([26]; 125 g ai/ha): 0
phytotoxicity rating ABUTH ([26]; 500 g ai/ha): 0

O=c1n(-c2cc(Oc3nccc(C(F)(F)F)n3)c(Cl)cc2F)c(=S)n2n1CCCC2 [Compound 8-30]
phytotoxicity rating AMBEL ([1]; rate 63 g ai/ha): 90
phytotoxicity rating AMBEL ([1]; rate 500 g ai/ha): 99
phytotoxicity rating IPOHE ([2]; rate 63 g ai/ha): 100
phytotoxicity rating IPOHE ([2]; rate 500 g ai/ha): 100
phytotoxicity rating CHEAL ([3]; rate 63 g ai/ha): 95
phytotoxicity rating CHEAL ([3]; rate 500 g ai/ha): 100
phytotoxicity rating ECHCG ([4]; rate 63 g ai/ha): 10
phytotoxicity rating ECHCG ([4]; rate 500 g ai/ha): 40
phytotoxicity rating DIGSA ([5]; rate 63 g ai/ha): 0
phytotoxicity rating DIGSA ([5]; rate 500 g ai/ha): 10
phytotoxicity rating AMARE ([6]; rate 63 g ai/ha): 90
phytotoxicity rating AMARE ([6]; rate 500 g ai/ha): 100
phytotoxicity rating CASOB ([7]; rate 63 g ai/ha): 100
phytotoxicity rating CASOB ([7]; rate 500 g ai/ha): 100
phytotoxicity rating SORHA ([8]; rate 63 g ai/ha): 20
phytotoxicity rating SORHA ([8]; rate 500 g ai/ha): 95
phytotoxicity rating SETVI ([9]; rate 63 g ai/ha): 60
phytotoxicity rating SETVI ([9]; rate 500 g ai/ha): 95
phytotoxicity rating ABUTH ([10]; rate 63 g ai/ha): 100
phytotoxicity rating ABUTH ([10]; rate 500 g ai/ha): 100
crop damage rating RICE ([11]; rate 63 g ai/ha): 5
crop damage rating RICE ([11]; rate 500 g ai/ha): 80
crop damage rating CORN ([12]; rate 63 g ai/ha): 15
crop damage rating CORN ([12]; rate 500 g ai/ha): 40
SOY crop damage rating ([13]; Rate 125 g al/ha): 80
SOY crop damage rating ([13]; Rate 500 g al/ha): 80
RICE crop damage rating ([14]; Rate 125 g al/ha): 20
RICE crop damage rating ([14]; Rate 500 g al/ha): 90
CORN crop damage rating ([15]; Rate 125 g al/ha): 10
CORN crop damage rating ([15]; Rate 500 g al/ha): 20
crop damage rating SOY ([16]; rate 63 g ai/ha): 95
crop damage rating SOY ([16]; rate 500 g ai/ha): 100
IPOHE phytotoxicity rating ([17]; Rate 125 g al/ha): 100
IPOHE phytotoxicity rating ([17]; Rate 500 g al/ha): 90
CHEAL phytotoxicity rating ([18]; Rate 125 g al/ha): 100
CHEAL phytotoxicity rating ([18]; Rate 500 g al/ha): 100
ECHCG phytotoxicity rating ([19]; Rate 125 g al/ha): 40
ECHCG phytotoxicity rating ([19]; Rate 500 g al/ha): 99
AMBEL phytotoxicity rating ([20]; Rate 125 g al/ha): 100
AMBEL phytotoxicity rating ([20]; Rate 500 g al/ha): 99
DIGSA phytotoxicity rating ([21]; Rate 125 g al/ha): 70
DIGSA phytotoxicity rating ([21]; Rate 500 g al/ha): 100
AMARE phytotoxicity rating ([22]; Rate 125 g al/ha): 100
AMARE phytotoxicity rating ([22]; Rate 500 g al/ha): 100
CASOB phytotoxicity rating ([23]; Rate 125 g al/ha): 100
CASOB phytotoxicity rating ([23]; Rate 500 g al/ha): 100
SORHA phytotoxicity rating ([24]; Rate 125 g al/ha): 40
SORHA phytotoxicity rating ([24]; Rate 500 g al/ha): 99
SETVI phytotoxicity rating ([25]; Rate 125 g al/ha): 100
SETVI phytotoxicity rating ([25]; Rate 500 g al/ha): 100
ABUTH phytotoxicity rating ([26]; Rate 125 g al/ha): 100
ABUTH phytotoxicity rating ([26]; Rate 500 g al/ha): 100
